# Test results reported in article PMC7409020, “Tumor-Targeting Peptides: The Functional Screen of Glioblastoma Homing Peptides to the Target Protein FABP3 (MDGI)” (Cancers, 2020).
# Square brackets hold non-standard residues; d marks the D form. Peptide text beside a SMILES is read from it.
# Target: T1, recombinant FABP3 (Homo sapiens, UniProt P05413)
# T1 construct: made in house; host or cells: Escherichia coli BL21 (DE3)
# Experiment: Microscale thermophoresis (MST) binding to NT-650-NHS-labeled FABP3
# Conditions: 20 nM labeled FABP3; peptide 500 µM to 0.0153 µM, two-fold dilutions; PBS-tween 20 pH 7.4; 25 °C; 40% MST power; 1:1 fit; mean ± SD of three independent experiments
# Procedure: For the binding affinity measurements between the recombinant FABP3 and the A-CooP, its variants, and the control peptide, we used the microscale thermophoresis. […] For these analyses, FABP3 was labeled with an NT-650-NHS fluorescence. Two-fold serially diluted peptides ranging from 500 µM to 0.0153 µM were titrated against a constant FABP3 concentration (20 nM). The binding events were generated following changes in fluorescence (ΔFnorm) against peptide concentrations. Subsequently, the equilibrium dissociation constant (KD) was calculated using a 1:1 fit model from the law of mass action. The MST binding affinities (KD values) are represented in a bar graph (Figure 4B). The smallest KD value equals the best affinity, and the highest value is the lowest affinity. […] The changes in fluorescence (ΔFnorm) were normalized to the bound fraction (Figure 4C). The data points towards 1 were considered bound fractions, while data points less than 1 represented the unbound fractions.
# FABP3 was labeled with a second-generation red amine-reactive NT-650-NHS fluorescent dye using the Nanotemper labeling kit (MO-L011; Nanotemper, https://nanotempertech.com/). The protein/dye concentration ratio and volume ratio were 1:3 and 1:1, respectively, in accordance with the manufacturer’s instructions. The actual concentration and degree of labeling (DOL) were determined using the extinction coefficient Ɛ280 = 18450 M^−1 cm^−1 for FABP3 and Ɛ650 =195000 M^−1 cm^−1 for the NT650 dye. Using the correction factor of 0.04 at 280 nm, the DOL for all labeling reactions was calculated according to manufacturer’s instructions. Binding experiments were carried out in a PBS-tween 20 buffer (10 mM Na2HPO4, 140 mM NaCl, 2.7 mM KCl, 0.05% tween 20, pH 7.4). The binding assay was performed with a fixed concentration (20 nM) of the fluorescently labeled FABP3 (target) and two-fold serially diluted decreasing concentrations (500 µM to 0.0153 µM) of the unlabeled A-CooP variants (ligand). The reaction mixture of 16 serial diluents of A-CooP or its analogues and FABP3 were filled into the capillary tubes (Nanotemper, MO-K022) and loaded in the Monolith NT 115 instrument accordingly. All experiments were carried out at 25 °C, 40% MST power (medium), and 60% LED power. Binding assay and measurements were performed in triplicates for each experimental setup.
# T1 sequence (P05413 whole entry): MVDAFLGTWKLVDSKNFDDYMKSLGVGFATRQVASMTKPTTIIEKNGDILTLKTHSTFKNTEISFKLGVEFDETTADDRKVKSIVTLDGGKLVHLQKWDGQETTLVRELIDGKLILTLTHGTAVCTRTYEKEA
row,SMILES,Kd [nM]
1,CC(C)C[C@H](NC(=O)CNC(=O)[C@H](CO)NC(=O)[C@H](CC(C)C)NC(=O)CNC(=O)[C@H](CS)NC(=O)[C@H](C)N)C(=O)NCC(=O)N[C@@H](C)C(=O)N[C@@H](C)C(N)=O [A-[Ala^8]CooP] (H-ACGLSGLGAA-NH2),120 ± 50
2,CC(C)C[C@H](NC(=O)CNC(=O)[C@H](CO)NC(=O)[C@H](CC(C)C)NC(=O)CNC(=O)[C@H](CS)NC(=O)[C@H](C)N)C(=O)NCC(=O)N[C@H](C(=O)N[C@@H](C)C(N)=O)C(C)C [A-CooP] (H-ACGLSGLGVA-NH2),2180 ± 1150
3,CC(C)C[C@H](NC(=O)CNC(=O)[C@H](CO)NC(=O)[C@H](CC(C)C)NC(=O)[C@H](C)NC(=O)[C@H](CS)NC(=O)[C@H](C)N)C(=O)NCC(=O)N[C@H](C(=O)N[C@@H](C)C(N)=O)C(C)C [A-[Ala^2]CooP] (H-ACALSGLGVA-NH2),90 ± 70
4,CC(C)C[C@H](NC(=O)CNC(=O)[C@H](CO)NC(=O)[C@H](CC(C)C)NC(=O)CNC(=O)[C@H](CS)NC(=O)[C@H](C)N)C(=O)NCC(=O)N[C@H](C(=O)N[C@@H](C)C(=O)N[C@@H](CCCCN)C(N)=O)C(C)C [A-CooP-K] (H-ACGLSGLGVAK-NH2),70 ± 10
5,CC(C)C[C@H](NC(=O)CNC(=O)[C@H](CO)NC(=O)[C@H](CC(C)C)NC(=O)CNC(=O)[C@H](CS)NC(=O)[C@H](C)N)C(=O)N[C@@H](C)C(=O)N[C@H](C(=O)N[C@@H](C)C(N)=O)C(C)C [A-[Ala^7]CooP] (H-ACGLSGLAVA-NH2),133000 ± 75000
6,CC(C)C[C@H](NC(=O)CNC(=O)[C@H](CO)NC(=O)[C@H](C)NC(=O)CNC(=O)[C@H](CS)NC(=O)[C@H](C)N)C(=O)NCC(=O)N[C@H](C(=O)N[C@@H](C)C(N)=O)C(C)C [A-[Ala^3]CooP] (H-ACGASGLGVA-NH2),250 ± 140
7,CC(C)C[C@H](NC(=O)CNC(=O)[C@H](CS)NC(=O)[C@H](C)N)C(=O)N[C@@H](CO)C(=O)NCC(=O)N[C@@H](C)C(=O)NCC(=O)N[C@H](C(=O)N[C@@H](C)C(N)=O)C(C)C [A-[Ala^6]CooP] (H-ACGLSGAGVA-NH2),190 ± 30
8,CC(C)C[C@H](NC(=O)CNC(=O)[C@H](CO)NC(=O)[C@H](CC(C)C)NC(=O)CNC(=O)[C@H](CS)NC(=O)[C@H](C)NC(=O)[C@@H](N)CCCCN)C(=O)NCC(=O)N[C@H](C(=O)N[C@@H](C)C(N)=O)C(C)C [KA-CooP] (H-KACGLSGLGVA-NH2),630 ± 130
9,CC(C)C[C@@H](NC(=O)CNC(=O)[C@H](NC(=O)[C@@H](C)N)C(C)C)C(=O)NCC(=O)N[C@H](CO)C(=O)N[C@H](CC(C)C)C(=O)NCC(=O)N[C@H](CS)C(=O)N[C@H](C)C(N)=O [RI-A-CooP] (H-[dA][dV]G[dL]G[dS][dL]G[dC][dA]-NH2),24000 ± 13000
